This is an account of results in ChEMBL document CHEMBL1124322, “Synthesis and alpha 2-adrenoceptor antagonist activity of some disulfonamidobenzoquinolizines” (J Med Chem, 1989).

Each structure is given as a SMILES string.

Assay [1] concerns the target T1, Adrenergic receptor alpha-2 (Rattus norvegicus, UniProt P22086+P19328+P22909).
T1 sequence (P22086 whole entry): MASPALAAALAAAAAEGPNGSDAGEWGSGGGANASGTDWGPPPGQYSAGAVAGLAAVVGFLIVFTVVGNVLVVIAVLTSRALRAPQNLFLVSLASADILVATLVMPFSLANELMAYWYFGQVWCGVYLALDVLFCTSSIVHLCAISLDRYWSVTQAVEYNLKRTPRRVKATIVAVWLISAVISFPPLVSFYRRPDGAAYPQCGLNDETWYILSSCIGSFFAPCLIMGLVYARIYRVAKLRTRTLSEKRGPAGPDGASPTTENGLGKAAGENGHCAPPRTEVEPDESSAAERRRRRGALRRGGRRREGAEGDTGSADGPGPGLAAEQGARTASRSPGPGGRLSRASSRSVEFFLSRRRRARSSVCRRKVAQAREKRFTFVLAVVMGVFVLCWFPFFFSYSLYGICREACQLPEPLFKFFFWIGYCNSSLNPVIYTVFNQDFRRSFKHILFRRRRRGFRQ
T1 sequence (P19328 whole entry): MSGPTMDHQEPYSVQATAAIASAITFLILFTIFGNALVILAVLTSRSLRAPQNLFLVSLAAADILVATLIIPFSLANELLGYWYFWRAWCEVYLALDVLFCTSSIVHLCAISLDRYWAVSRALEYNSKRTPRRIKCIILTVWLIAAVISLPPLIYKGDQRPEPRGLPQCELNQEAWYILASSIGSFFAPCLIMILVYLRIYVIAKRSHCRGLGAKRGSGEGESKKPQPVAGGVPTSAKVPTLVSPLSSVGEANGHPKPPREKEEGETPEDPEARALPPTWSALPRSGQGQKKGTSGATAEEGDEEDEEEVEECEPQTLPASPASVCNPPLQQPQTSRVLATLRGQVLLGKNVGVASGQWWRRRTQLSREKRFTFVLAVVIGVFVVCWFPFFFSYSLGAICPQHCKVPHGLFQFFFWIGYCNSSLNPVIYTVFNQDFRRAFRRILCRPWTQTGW
T1 sequence (P22909 whole entry): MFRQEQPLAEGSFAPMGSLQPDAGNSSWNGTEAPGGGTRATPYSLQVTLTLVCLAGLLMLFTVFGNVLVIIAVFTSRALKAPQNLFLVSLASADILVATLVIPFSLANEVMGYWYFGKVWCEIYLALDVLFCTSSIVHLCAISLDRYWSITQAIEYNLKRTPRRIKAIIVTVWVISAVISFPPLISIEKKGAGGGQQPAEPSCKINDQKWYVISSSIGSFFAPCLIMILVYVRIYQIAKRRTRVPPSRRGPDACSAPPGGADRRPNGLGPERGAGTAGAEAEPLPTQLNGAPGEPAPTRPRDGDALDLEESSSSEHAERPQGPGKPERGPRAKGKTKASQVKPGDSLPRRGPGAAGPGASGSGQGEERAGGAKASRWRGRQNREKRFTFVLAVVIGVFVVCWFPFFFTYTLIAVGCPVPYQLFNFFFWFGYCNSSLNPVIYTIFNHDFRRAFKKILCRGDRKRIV
Description: Antagonism of rat alpha-2 adrenergic receptor from rat vas deferens. The class given is functional.

In assay [2] the target is Adrenergic receptor alpha (Rattus norvegicus) (UniProt P15823+P23944+P43140+P22086+P19328+P22909). Description: Ratio of pA2 values at alpha-1 and alpha-2 adrenergic receptors. The class given is protein assay.
Assay [3] deals with T2, Adrenergic receptor alpha-1 (Rattus norvegicus, UniProt P15823+P23944+P43140).
T2 sequence (P15823 whole entry): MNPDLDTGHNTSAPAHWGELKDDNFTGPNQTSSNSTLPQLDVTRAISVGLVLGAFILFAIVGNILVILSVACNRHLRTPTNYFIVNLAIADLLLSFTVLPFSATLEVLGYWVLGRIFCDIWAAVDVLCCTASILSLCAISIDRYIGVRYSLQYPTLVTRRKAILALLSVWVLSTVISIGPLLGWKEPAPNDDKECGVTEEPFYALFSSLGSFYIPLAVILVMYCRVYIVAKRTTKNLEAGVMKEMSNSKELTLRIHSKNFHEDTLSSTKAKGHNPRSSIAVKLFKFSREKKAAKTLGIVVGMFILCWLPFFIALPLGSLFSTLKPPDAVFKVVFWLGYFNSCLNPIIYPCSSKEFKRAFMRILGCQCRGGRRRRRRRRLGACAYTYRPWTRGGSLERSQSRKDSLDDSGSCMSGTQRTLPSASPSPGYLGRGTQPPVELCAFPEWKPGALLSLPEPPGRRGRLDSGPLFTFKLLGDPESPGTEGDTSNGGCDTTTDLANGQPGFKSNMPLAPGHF
T2 sequence (P23944 whole entry): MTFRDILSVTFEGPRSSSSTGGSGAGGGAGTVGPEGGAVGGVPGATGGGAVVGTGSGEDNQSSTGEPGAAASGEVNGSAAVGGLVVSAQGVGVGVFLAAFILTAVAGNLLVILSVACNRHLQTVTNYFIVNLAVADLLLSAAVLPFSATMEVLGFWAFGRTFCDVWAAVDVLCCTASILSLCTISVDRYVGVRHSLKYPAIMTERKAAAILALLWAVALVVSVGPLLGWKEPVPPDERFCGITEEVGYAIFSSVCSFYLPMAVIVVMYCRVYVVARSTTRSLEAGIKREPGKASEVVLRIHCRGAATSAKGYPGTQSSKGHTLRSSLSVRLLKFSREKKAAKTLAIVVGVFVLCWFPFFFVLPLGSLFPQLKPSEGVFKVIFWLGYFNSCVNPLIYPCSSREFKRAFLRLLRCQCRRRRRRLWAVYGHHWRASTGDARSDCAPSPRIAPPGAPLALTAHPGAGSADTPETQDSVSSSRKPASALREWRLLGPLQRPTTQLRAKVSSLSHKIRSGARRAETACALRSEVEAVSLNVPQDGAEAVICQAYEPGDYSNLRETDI
T2 sequence (P43140 whole entry): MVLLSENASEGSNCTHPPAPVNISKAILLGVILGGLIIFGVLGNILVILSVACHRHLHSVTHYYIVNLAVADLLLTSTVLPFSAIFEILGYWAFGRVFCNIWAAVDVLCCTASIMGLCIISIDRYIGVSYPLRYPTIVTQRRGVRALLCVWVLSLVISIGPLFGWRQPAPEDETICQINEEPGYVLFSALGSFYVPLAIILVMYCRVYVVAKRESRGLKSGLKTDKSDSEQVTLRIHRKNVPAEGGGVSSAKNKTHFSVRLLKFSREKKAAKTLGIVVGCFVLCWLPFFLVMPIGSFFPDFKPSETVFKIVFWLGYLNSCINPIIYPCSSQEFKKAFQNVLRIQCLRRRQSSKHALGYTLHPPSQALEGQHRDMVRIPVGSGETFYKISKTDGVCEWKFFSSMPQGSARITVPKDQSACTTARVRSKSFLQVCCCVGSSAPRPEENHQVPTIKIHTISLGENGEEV
Description: Antagonist activity against alpha-1 adrenergic receptor of rat anococcygeus muscle. The class given is functional.

The subject of assay [4] is Adrenergic receptor alpha (Rattus norvegicus). Description: Selectivity ratio towards alpha-2 and alpha1 expressed as antilog(alpha-2pA2-alpha-1pA2).
The target of assay [5] is T2, Adrenergic receptor alpha-1. Description: Antagonist activity against Alpha-1 adrenergic receptor of rat anococcygeus muscle. The class given is functional.
In assay [6] the target is T1, Adrenergic receptor alpha-2. Description: Antagonist activity against alpha-2 adrenergic receptor of rat vas deferens. The class given is functional, tissue-based.

`CCCS(=O)(=O)N(CCNS(=O)(=O)CC)[C@@H]1CCN2CCc3ccccc3[C@@H]2C1`: the pA2 in assay [1] stood at 8.1.
For the compound `CN(CCN([C@@H]1CCN2CCc3ccccc3[C@@H]2C1)S(C)(=O)=O)S(C)(=O)=O`, the pA2 in assay [1] came to 6.03; in assay [3] it was 5.5. In assay [2], the Ratio was 3.
For `CS(=O)(=O)NCCN([C@@H]1CCN2CCc3ccccc3[C@@H]2C1)S(=O)(=O)c1ccc(F)cc1` the same measures were 7.7, 5.7 and 100.
As to `O=S(=O)(CCl)NCCN([C@@H]1CCN2CCc3ccccc3[C@@H]2C1)S(=O)(=O)CCl`, the pA2 in assay [1] is given as 8; in assay [5] it was 6.33. The Ratio in assay [4] was determined as 47.
Turning to `CS(=O)(=O)NCCN([C@@H]1CCN2CCc3ccccc3[C@@H]2C1)S(=O)(=O)c1ccccc1`, the pA2 in assay [1] is on record as 8.12; in assay [3], 6.16. For the same compound, the Ratio in assay [2] was 91.
`CCCS(=O)(=O)NCCN([C@@H]1CCN2CCc3ccccc3[C@@H]2C1)S(C)(=O)=O`: the pA2 in assay [1] is on record as 6.7; in assay [3], 5.7. Also, the Ratio in assay [2] turned out to be 10.
For `CCS(=O)(=O)N(CCNS(C)(=O)=O)[C@@H]1CCN2CCc3ccccc3[C@@H]2C1` the same measures were 8.34, 5.65 and 490.
On the same counts, the results for `CCCS(=O)(=O)N(CCNS(C)(=O)=O)[C@@H]1CCN2CCc3ccccc3[C@@H]2C1` are 8.29, 5.8 and 310.
`CS(=O)(=O)N(CCNS(=O)(=O)CCl)[C@@H]1CCN2CCc3ccccc3[C@@H]2C1`: the pA2 stood at 8.1 in assay [1] and 6.2 in assay [5]. Further, the Ratio in assay [4] was 79.
Consider `CS(=O)(=O)N(CCNS(=O)(=O)c1ccccc1)[C@@H]1CCN2CCc3ccccc3[C@@H]2C1`, for which the pA2 in assay [1] and in assay [3] was 5.9 each time. In addition, the Ratio in assay [2] came out at 1.
As for `Cc1cccc(S(=O)(=O)N(CCNS(C)(=O)=O)[C@@H]2CCN3CCc4ccccc4[C@@H]3C2)c1`, the pA2 in assay [1] is recorded as 8; in assay [3], 6.4. Also, the Ratio in assay [2] was 40.
`CC(C)(CN([C@@H]1CCN2CCc3ccccc3[C@@H]2C1)S(C)(=O)=O)NS(C)(=O)=O` came in with a pA2 in assay [1] of 6.14.
Regarding `CS(=O)(=O)NCCN([C@@H]1CCN2CCc3ccccc3[C@@H]2C1)S(C)(=O)=O`, the values for the pA2 in assay [1] and in assay [3] were 7.93 and 5.32, respectively. Further, the Ratio in assay [2] came out at 410.
Compound `CS(=O)(=O)N(CCNS(=O)(=O)C(F)(F)F)[C@@H]1CCN2CCc3ccccc3[C@@H]2C1` came in with a pA2 in assay [1] of 6.4.
As for `CCS(=O)(=O)NCCN([C@@H]1CCN2CCc3ccccc3[C@@H]2C1)S(C)(=O)=O`, the pA2 came to 7.73 in assay [1] and 5.65 in assay [3]. In assay [2], the Ratio came to 120.
`CS(=O)(=O)NCCN([C@@H]1CCN2CCc3ccccc3[C@@H]2C1)S(=O)(=O)c1ccc(Cl)cc1` returned a pA2 in assay [6] of 8.04.
Turning to `Cc1ccc(S(=O)(=O)N(CCNS(C)(=O)=O)[C@@H]2CCN3CCc4ccccc4[C@@H]3C2)cc1`, the pA2 stood at 8.4 in assay [1] and 5.8 in assay [3]. Also, in assay [2], the Ratio amounted to 400.
In the case of `CS(=O)(=O)NCCCN([C@@H]1CCN2CCc3ccccc3[C@@H]2C1)S(C)(=O)=O`, the pA2 in assay [1] and in assay [3] was 5.7 throughout. Besides, the Ratio in assay [2] amounted to 1.
For the compound `CCS(=O)(=O)NCCN([C@@H]1CCN2CCc3ccccc3[C@@H]2C1)S(=O)(=O)CC`, the pA2 was found to be 8.27 in assay [1] and 5.54 in assay [3]. Also, the Ratio in assay [2] was found to be 540.
Regarding `CCCS(=O)(=O)N(C)[C@@H]1CCN2CCc3ccccc3[C@@H]2C1`, the Ratio in assay [2] worked out at 55.
Turning to `CCS(=O)(=O)NCCN([C@@H]1CCN2CCc3ccccc3[C@@H]2C1)S(=O)(=O)c1ccc(C)cc1`, the pA2 in assay [1] was 7.62; in assay [3] it was 6.6.
Turning to `CS(=O)(=O)NCCN([C@@H]1CCN2CCc3ccccc3[C@@H]2C1)S(=O)(=O)c1cccc([N+](=O)[O-])c1`, the pA2 in assay [1] is reported as 7.69; in assay [3], 6.7. Further, the Ratio in assay [2] was found to be 10.
The compound `CS(=O)(=O)NCCCCN([C@@H]1CCN2CCc3ccccc3[C@@H]2C1)S(C)(=O)=O` registered a pA2 in assay [1] of 5.66.
As to `COc1ccc(S(=O)(=O)N(CCNS(C)(=O)=O)[C@@H]2CCN3CCc4ccccc4[C@@H]3C2)cc1`, the values for the pA2 in assay [1] and in assay [3] were 8.1 and 6.1, respectively. The Ratio in assay [2] stood at 100.

As a reminder, the pA2 is the negative logarithm of the molar antagonist concentration that doubles the agonist concentration needed for the same response. A lower pA2 goes with lower antagonist potency.
